# Measured values reported in PMC6556873, “Rapid Covalent-Probe Discovery by Electrophile-Fragment Screening” (Journal of the American Chemical Society, 2019).
# Read-outs that look alike come from different tables or passages of the source.
# Experiments:
# BSA = target: T1, BSA (Bos taurus, UniProt P02769); design: Intact protein LC/MS covalent labelling, fragments in pools of five, 200 uM each, 4 °C; details: 24 h, 4 °C, pool of five; 200 µM; covalent
# T1 construct: gene ALB
# PCAF = target: T2, PCAF (Homo sapiens, UniProt Q92831); design: Intact protein LC/MS covalent labelling, fragments in pools of five, 200 uM each, 4 °C; details: 24 h, 4 °C, pool of five; 200 µM; covalent
# T2 construct: gene KAT2B
# OTUB2 (OTUB2A) = target: T3, OTUB2 (OTUB2A) (Homo sapiens, UniProt Q96DC9); design: Intact protein LC/MS covalent labelling, fragments in pools of five, 200 uM each, 4 °C; details: 24 h, 4 °C, pool of five; 200 µM; covalent
# T3 construct: full length residues 1-234, E. coli BL21(DE3)-R3, His tag removed by TEV, construct 27312 Da
# T3 sequence (Q96DC9 1-234): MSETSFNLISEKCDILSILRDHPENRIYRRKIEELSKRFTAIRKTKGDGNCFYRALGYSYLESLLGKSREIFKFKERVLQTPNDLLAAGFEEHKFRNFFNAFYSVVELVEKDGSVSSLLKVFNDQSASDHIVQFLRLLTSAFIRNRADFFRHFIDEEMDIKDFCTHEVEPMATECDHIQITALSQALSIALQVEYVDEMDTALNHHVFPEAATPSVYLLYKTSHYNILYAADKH
# NUDT7 [1] = target: T4, NUDT7 (Homo sapiens, UniProt P0C024); design: Intact protein LC/MS covalent labelling, fragments in pools of five, 200 uM each, 4 °C; details: 24 h, 4 °C, pool of five; 200 µM; covalent
# T4 construct: residues 14-235, E. coli, pNIC28-Bsa4, N-terminal His6 tag removed by TEV, construct 26672 Da
# NUDT7 [2] = target: T4, NUDT7; experiment: X-ray cocrystal structure; format: binding; details: covalent; C73
# in vitro [3] = experiment: in vitro; design: species or system HB2, HEK293; details: human, ccd841 cells
# in vitro [4] = experiment: in vitro; design: species or system CCD841, HEK293; details: human, hb2 cells, read-out: HB-2 Cells Viability (%)
# in vitro [5] = experiment: in vitro; design: species or system HB2, CCD841; details: human, hek293 cells
# NUDT7 [6] = target: T4, NUDT7; experiment: intact protein LC/MS labeling; format: binding; details: covalent; 24 h, 4 °C, 2 μM protein, pools of five, pH 7.5
# NNMT (hNNMT) = target: T5, NNMT (hNNMT) (Homo sapiens, UniProt P40261); design: Intact protein LC/MS covalent labelling, fragments in pools of five, 200 uM each, 4 °C; details: 24 h, 4 °C, pool of five; 200 µM; covalent
# T5 construct: wild type, N-terminal His6 tag kept (no cleavage described), E. coli, construct 31248 Da
# T5 sequence (P40261 1-264): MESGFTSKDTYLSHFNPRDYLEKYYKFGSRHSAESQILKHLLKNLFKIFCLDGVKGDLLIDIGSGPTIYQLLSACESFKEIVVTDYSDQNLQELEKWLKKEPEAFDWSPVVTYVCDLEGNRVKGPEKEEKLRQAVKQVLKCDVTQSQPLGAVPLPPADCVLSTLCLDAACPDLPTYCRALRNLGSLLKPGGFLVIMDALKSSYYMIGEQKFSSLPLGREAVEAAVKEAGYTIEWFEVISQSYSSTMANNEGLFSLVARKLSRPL
# NUDT7 [7] = target: T4, NUDT7; experiment: RapidFire MS acetyl-CoA hydrolysis, kobs vs [inhibitor]; format: biochemical
# T2 sequence (Q92831 whole entry, the tested form may be a part): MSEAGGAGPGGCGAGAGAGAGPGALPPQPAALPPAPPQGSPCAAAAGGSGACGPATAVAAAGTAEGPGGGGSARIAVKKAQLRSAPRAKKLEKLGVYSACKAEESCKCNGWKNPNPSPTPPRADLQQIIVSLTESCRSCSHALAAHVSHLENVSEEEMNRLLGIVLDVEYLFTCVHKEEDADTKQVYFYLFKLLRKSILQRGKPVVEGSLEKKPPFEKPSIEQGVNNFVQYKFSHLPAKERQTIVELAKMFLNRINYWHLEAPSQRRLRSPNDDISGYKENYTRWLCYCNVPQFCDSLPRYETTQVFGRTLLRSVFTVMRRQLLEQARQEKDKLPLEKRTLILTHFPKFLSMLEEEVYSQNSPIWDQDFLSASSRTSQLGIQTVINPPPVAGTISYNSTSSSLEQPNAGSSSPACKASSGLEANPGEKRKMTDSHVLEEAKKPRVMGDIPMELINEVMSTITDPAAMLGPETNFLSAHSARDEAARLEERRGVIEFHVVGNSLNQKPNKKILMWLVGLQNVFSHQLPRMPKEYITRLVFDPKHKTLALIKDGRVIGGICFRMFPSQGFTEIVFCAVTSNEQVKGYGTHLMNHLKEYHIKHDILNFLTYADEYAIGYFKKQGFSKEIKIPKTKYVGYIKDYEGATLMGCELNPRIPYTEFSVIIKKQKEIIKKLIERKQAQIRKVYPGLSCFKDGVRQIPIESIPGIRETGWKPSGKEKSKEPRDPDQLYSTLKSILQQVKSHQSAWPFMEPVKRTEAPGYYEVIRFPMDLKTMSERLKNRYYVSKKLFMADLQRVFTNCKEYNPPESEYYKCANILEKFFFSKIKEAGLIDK
# T4 sequence (P0C024 14-235): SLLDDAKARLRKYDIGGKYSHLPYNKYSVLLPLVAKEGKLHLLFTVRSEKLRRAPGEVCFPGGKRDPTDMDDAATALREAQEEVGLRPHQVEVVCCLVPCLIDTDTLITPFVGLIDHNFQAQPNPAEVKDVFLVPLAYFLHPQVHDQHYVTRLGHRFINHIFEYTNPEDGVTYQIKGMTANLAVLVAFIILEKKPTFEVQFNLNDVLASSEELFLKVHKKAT
# T1 sequence (P02769 whole entry, the tested form may be a part): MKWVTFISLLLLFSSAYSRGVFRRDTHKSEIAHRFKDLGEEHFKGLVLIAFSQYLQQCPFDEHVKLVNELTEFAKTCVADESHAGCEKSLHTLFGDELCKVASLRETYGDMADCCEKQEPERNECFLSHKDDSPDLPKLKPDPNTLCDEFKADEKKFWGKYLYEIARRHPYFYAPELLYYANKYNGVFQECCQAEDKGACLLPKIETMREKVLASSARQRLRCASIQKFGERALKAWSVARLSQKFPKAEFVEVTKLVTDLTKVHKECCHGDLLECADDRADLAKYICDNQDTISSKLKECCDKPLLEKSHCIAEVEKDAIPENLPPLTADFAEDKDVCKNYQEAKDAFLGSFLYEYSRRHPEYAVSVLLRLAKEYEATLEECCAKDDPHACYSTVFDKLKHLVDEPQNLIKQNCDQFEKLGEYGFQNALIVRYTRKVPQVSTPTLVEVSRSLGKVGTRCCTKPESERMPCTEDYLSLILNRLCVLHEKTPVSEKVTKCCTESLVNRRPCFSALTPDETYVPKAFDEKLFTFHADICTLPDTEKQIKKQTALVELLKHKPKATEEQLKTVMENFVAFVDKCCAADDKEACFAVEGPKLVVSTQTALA
SMILES,BSA (BSA),PCAF (PCAF),OTUB2 (OTUB2 (OTUB2A)),NUDT7 (NUDT7 [1]),X-ray cocrystal structure (NUDT7 [2]),"viability at 48 h, 10 µM (in vitro [3])","viability at 48 h, 10 µM (in vitro [4])","viability at 48 h, 10 µM (in vitro [5])",% labeling at 200 μM (NUDT7 [6]),NNMT (NNMT (hNNMT)),kinact/KI (NUDT7 [7])
COc1cccc(C2CCCN2C(=O)CCl)c1 (racemic) [PCM-0102716],0,0,0.09,0.68,"cocrystal structures of compounds PCM-0102951, PCM-0102558, and PCM-0102716 bound to NUDT7",34.4%,7.6%,3.6%,,,
O=C(CCl)N1CCCC1c1ccc2c(c1)OCCO2 (stereo not shown) [PCM-0102298],0,0,0,1,,21.6%,5.3%,4.5%,100%,,
COc1ccc(C2CCCN2C(=O)CCl)cc1 (stereo not shown) [PCM-0102938],0,0,0,1,,24.3%,12%,6.4%,100%,0,
O=C(CCl)NC1(c2ccc3c(c2)OCCO3)CCCC1 [PCM-0102951],0,0,0,1,"cocrystal structures of compounds PCM-0102951, PCM-0102558, and PCM-0102716 bound to NUDT7",69.3%,72.7%,56.4%,,,
COc1ccc(C2CCCCCN2C(=O)CCl)cc1 (stereo not shown) [PCM-0102558],0,0,0,1,,11%,27.4%,15.3%,,,233 M⁻¹ s⁻¹
O=C(CCl)N1CCCC1c1ccc2c(c1)OCCCO2 (stereo not shown) [PCM-0102512],0,0,0,0.88,,19.7%,8.3%,3.8%,88%,,
CC(NC(=O)CCl)c1ccco1 (stereo not shown) [PCM-0102798],0,0,0.19,0.14,,97.1%,95.8%,88.4%,,0,
C#CCN1CCN(C(=O)CCl)CC1.Cl [PCM-0102811],0,0,0,0,,84.9%,92.5%,72.2%,,0,
C=CC(=O)N1CCN(C2CCCN(C3CCOCC3)C2=O)CC1 (stereo not shown) [PCM-0102886],0,0,0,0,,105%,106%,104%,,0,
Cc1ccc(NC(=O)NC(=O)CCl)cc1 [PCM-0102623],0,0,0,0.11,,82.5%,69.1%,80.6%,,0.71,
CCOC(=O)N1CCN(C(=O)CCl)CC1 [PCM-0102861],0,0,0,0,,109%,114%,82.6%,,0,
C=CC(=O)N1CCC(C(=O)[O-])CC1.[Na+] [PCM-0102613],0,0,0,0,,125%,98.2%,114%,,0,
Cc1ccc(NC(=O)NC(=O)CCl)cc1C [PCM-0102119],0,0,0,0.09,,63.5%,48.8%,63.3%,,0.57,
C=CC(=O)N1CC(=O)NC2CCCCC21 (stereo not shown) [PCM-0102717],0,0,0,0,,105%,100%,112%,,0,
CN(Cc1cccc(F)c1)C(=O)CCl [PCM-0102747],0,0,0,0,,73.1%,64.5%,46.1%,,0,
C=CC(=O)N1CC(S(=O)(=O)CC)C1 [PCM-0102442],0,0,0,0,,100%,94.8%,77.7%,,0.14,
COC(=O)c1cc(Cl)cc(Cl)c1NC(=O)CCl [PCM-0102912],0.11,0,0,0.17,,90.6%,97%,106%,,0.11,
CCc1cccc(C)c1NC(=O)CCl [PCM-0102618],0,0,0,0.11,,106%,98.3%,101%,,0,
